From article PMC9762789, “Chromone-based monoamine oxidase B inhibitor with potential iron-chelating activity for the treatment of Alzheimer’s disease” (Journal of Enzyme Inhibition and Medicinal Chemistry, 2022)
“Also recorded” adds a separate entry of the source. Where two headings read alike, the source gives them in different places.

What was measured:
[1] = Pharmacokinetic study and brain distribution (UHPLC-MS/MS); format: in vivo; conditions: rats; for AUC(0-t): read-out: AUC0–24; for MRT inf: read-out: MRT0–∞
Method: UHPLC-MS/MS method was adopted to investigate the pharmacokinetic profiles of its metabolites after intravenous (i.v.) administration (2.34 mg/kg) and intragastric (i.g.) administration (15 mg/kg) of 17d in the tail vein of rats.
Rats were purchased from the Zhejiang Academy of Medical Sciences (Hangzhou, China). All rats were kept strictly following the requirements of experimental animal operation instructions, kept at a temperature (22 ± 2 °C), day/night cycle every 12 h in a constant environment. 12 h before the experiment, the rats were fasted but free to drink. For each rat, retro-orbital blood samples (0.2 ml) were obtained into EDTA soaked polythene tubes before drug administration and at time points of 0.083, 0.25, 0.50, 0.75, 1.0, 2.0, 4.0, 6.0, 8.0, 10, 12, and 24 h post-dosing. The collected blood samples were immediately centrifuged at 3500 rpm for 10 min at room temperature to separate plasma, and stored in a −80 °C refrigerator before use. […] The tissue was weighed and homogenised under ice bath conditions and was collected for further processing.
Biological samples were performed with ACQUITY UPLC® H Class system, which was coupled to an Xevo TQ-S micro triple quadrupole mass spectrometer (Waters, Milford, MA, USA) with an ESI source and MassLynx^TM Workstation software version 4.2 (Waters, Milford, MA, USA). We used a BEH Shield RP C18 column (100 × 2.1 mm, 1.7 µm, Waters, Milford, MA, USA) for chromatographic separation, and the column temperature is kept at 30 °C. The mobile phase was composed of 30%, 0.2% formic acid aqueous solution (A) and 70%, 0.3% formic acid methanol solution (B) and is delivered at a flow rate of 0.2 ml/min. The temperature of the autosampler is set to 30 °C. The sample injection volume is 5 µl. Pharmacokinetic parameters of the analytes were calculated using the pharmacokinetic software DAS version 2.0 (Bontz Inc., Beijing, China). All data were expressed as mean ± SD.

Human MAO-A = molecular target: T1, Human MAO-A (Homo sapiens, UniProt P21397); assay: hMAO-A inhibition assay; format: biochemical
T1 construct: purchased Sigma-Aldrich
T1 sequence (P21397 1-527): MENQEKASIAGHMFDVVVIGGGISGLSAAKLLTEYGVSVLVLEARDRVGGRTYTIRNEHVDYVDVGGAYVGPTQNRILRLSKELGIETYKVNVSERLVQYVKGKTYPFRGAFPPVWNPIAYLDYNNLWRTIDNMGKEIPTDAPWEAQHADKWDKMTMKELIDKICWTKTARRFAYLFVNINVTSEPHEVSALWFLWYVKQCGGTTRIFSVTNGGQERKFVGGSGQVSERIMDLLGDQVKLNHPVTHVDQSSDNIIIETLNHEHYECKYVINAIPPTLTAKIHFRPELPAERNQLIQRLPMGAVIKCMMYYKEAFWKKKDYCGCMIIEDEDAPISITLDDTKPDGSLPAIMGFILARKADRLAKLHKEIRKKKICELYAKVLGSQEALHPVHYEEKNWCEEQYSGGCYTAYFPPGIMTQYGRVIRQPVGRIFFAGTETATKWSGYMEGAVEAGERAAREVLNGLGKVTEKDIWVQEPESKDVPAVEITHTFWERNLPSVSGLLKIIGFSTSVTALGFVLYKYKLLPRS
Method: Further, the inhibitory activity of compounds against hMAO-A isoform was tested and calculated as a selectivity index [Selectivity index (SI): IC50 (hMAO-A)/IC50 (hMAO-B)].
The reagents and enzymes (Human MAO-B and Human MAO-A) applied in this experiment were purchased from Sigma-Aldrich. According to the manuals, all components (substrate solution and enzyme solution) are diluted and placed aside for use. The detailed process has been mentioned in our early work[34].

[2] = pKa determination by automated spectrophotometric titration; format: physicochemical; conditions: 0.1 M KCl solution
PC-12 cells = assay: Cytotoxicity test (MTT); format: cell-based; conditions: 24 h, up to 50 µM
Method: To examine the interaction mode of 17d on MAO-B, kinetic studies were carried out. From the Lineweaver–Burk plots (Figure 5(B)), we observed that 17d operated by a non-competitive inhibition mechanism. […] Subsequently, the potential toxic effect of 17d was investigated on pheochromocytoma (PC-12) cells.
Neural pheochromocytoma-derived PC-12 cells at the log phase of their growth cycle (8 × 10^4 cells/ml) were added to each well (100 μl/well) and incubated for 24 h at 37 °C in a humidified atmosphere of 5% CO2. Then three replicates at various concentrations of the samples (3.13, 6.25, 12.5, 25, and 50 μM) were added to each well (100 μl/well). After incubating for 24 h, 20 μl of MTT solution (5 mg/ml/well) was added to each culture medium, which was then incubated for another 4 h. Then DMSO was added to each well (150 μl/well). After 10 min at room temperature, the OD values of each well were measured on a Microplate Reader (BioTek ELx800, Winooski, VT) at the wavelength of 490 nm.

[3] = rat, plasma, iv, i.v. 2.34 mg/kg, mean ± SD, n = 3
[4] = rat, plasma, po, i.g. 15 mg/kg, mean ± SD, n = 3

`COc1ccc2c(=O)c(CNCCn3ccc(=O)c(O)c3C)coc2c1` [Compound 17d, 3-Hydroxy-1–(2-(((7-methoxy-4-oxo-4H-chromen-3-yl)methyl)amino)ethyl)-2-methylpyridin-4(1H)-one] gave an AUC(0-inf) [1, 3] of 749 ± 87.1 ng·h/mL, a Cmax [1, 3] of 2150 ± 637 ng/mL and a Tmax [1, 3] of 4.98 min. For the same compound, the clearance [1, 3] was 52.5 mL/min/kg, the half-life [1, 3] was 19.2 min and the AUC(0-t) [1, 3] was 745 ± 88.4 ng·h/mL. It also gave an MRT inf [1, 3] of 15 ± 4.8 min, a bioavailability ([1]; rat, plasma, oral, i.g. 15 mg/kg vs i.v. 2.34 mg/kg, read-out: F (bioavailability)) of 9.25% and an AUC(0-inf) [1, 4] of 444 ± 65.3 ng·h/mL. The Cmax [1, 4] was 390 ± 50.1 ng/mL, the Tmax [1, 4] was 15 min and the half-life [1, 4] was 30.6 ± 10.8 min. The AUC(0-t) [1, 4] was 439 ± 59.6 ng·h/mL, the MRT inf [1, 4] was 48.6 ± 5.4 min and the “Brain 17d content” value ([1]; i.g. 15 mg/kg, collected at Cmax time point) was 6.02 ± 0.08 ng/g. It also gave a V ([1]; i.v. 2.34 mg/kg, mean ± SD, n = 3) of 1.46 ± 0.19 L/kg, an IC50 (Human MAO-A) of 739 ± 21.9 nM and a pKa ([2]; read-out: pKa1) of 2.86. For the same compound, the pKa ([2]; read-out: pKa2) was 9.78, the cytotoxicity (PC-12 cells) was “no cytotoxicity; also recorded: noncytotoxic” and the melting point was 252 to 254 °C.
